Reference: ChEMBL document CHEMBL1201862, “PubChem BioAssay data set” (2004)
Calls of active or inactive are those of the source.

Key:
[1] = Fluorescence-based cell-based high throughput dose response assay for inhibitors of the interaction of nucleotide-binding oligomerization domain containing 2 (NOD2) and the receptor-interacting serine-threonine kinase 2 (RIPK2).; type: functional; settings: Homo sapiens
Protein RecA = biological target: T1, Protein RecA (Mycobacterium tuberculosis, UniProt P9WHJ3); assay: Fluorescence Cell-Free Homogeneous Dose Retest to Identify Inhibitors of RecA-Intein Splicing Activity. [Related pubchem assays (depositor defined):AID2097, AID2223, AID489010, AID492950]; type: functional
T1 sequence (P9WHJ3 whole entry): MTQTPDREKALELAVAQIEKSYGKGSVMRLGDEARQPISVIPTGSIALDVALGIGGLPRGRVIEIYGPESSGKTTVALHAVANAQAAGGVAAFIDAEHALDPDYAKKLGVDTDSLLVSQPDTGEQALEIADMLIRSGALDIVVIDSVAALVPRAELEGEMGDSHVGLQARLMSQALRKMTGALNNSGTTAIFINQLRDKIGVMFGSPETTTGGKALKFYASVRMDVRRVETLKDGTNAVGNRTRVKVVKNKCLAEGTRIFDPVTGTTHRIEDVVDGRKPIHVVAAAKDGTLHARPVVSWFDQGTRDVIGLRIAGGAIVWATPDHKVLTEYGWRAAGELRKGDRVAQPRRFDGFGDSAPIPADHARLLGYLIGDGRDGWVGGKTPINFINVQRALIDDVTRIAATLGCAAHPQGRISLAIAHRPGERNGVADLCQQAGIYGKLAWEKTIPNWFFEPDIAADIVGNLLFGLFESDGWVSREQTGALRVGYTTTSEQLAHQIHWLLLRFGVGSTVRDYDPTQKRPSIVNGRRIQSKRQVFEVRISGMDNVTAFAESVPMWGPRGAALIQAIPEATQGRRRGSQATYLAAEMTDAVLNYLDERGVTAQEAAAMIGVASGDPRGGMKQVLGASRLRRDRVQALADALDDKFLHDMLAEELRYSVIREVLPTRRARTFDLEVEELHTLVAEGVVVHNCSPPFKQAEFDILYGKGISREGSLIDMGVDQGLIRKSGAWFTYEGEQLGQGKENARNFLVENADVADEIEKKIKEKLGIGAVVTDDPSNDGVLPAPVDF

[2] = biological target: T2, Replicative DNA helicase DnaB (Mycobacterium tuberculosis, UniProt P9WMR3); assay: DnaB intein splicing inhibitors, dose response, biochemical, cell-free fluorescence (AID 449749); type: functional
T2 sequence (P9WMR3 whole entry): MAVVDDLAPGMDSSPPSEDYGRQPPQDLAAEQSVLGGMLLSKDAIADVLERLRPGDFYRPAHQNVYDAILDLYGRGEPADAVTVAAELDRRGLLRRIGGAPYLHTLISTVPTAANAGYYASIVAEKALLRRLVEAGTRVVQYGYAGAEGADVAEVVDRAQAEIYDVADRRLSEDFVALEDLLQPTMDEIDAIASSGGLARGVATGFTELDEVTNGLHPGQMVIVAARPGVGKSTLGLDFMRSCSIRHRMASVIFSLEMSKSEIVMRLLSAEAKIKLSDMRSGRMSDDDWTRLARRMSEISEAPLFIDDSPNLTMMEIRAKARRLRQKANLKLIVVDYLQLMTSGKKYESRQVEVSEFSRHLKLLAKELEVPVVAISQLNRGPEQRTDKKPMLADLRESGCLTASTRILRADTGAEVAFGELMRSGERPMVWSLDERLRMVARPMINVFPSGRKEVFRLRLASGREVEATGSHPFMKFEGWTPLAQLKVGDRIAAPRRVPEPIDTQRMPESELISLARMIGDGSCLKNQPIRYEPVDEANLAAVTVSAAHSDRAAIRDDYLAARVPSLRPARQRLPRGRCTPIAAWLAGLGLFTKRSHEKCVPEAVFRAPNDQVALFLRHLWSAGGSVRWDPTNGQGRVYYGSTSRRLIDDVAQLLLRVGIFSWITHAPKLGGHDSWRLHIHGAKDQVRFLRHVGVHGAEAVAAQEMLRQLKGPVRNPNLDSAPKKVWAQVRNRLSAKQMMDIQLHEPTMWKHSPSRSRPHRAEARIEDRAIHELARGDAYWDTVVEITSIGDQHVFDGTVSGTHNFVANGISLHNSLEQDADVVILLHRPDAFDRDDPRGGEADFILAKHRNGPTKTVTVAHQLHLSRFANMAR

[3] = biological target: ADP-ribosylation factor GTPase-activating protein 1 (Rattus norvegicus, UniProt Q62848); assay: Fluorescence polarization-based biochemical high throughput dose response screening assay to identify inhibitors of ADP-ribosylation factor GTPase activating protein 1 (ARFGAP1).; type: functional
Chain of ADP-ribosylation factor GTPase-activating protein 1 (Q62848 whole entry): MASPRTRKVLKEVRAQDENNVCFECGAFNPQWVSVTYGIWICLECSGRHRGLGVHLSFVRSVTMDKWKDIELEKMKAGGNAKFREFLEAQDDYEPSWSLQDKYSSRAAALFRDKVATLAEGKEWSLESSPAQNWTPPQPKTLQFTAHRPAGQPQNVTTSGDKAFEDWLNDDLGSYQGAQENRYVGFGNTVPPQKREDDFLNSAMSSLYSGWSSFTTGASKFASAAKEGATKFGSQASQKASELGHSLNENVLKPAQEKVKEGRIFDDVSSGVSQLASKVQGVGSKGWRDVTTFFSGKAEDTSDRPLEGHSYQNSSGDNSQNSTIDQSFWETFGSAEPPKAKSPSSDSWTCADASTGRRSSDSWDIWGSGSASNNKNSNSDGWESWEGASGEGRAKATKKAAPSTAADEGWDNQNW

[4] = non-specific cell cytotoxicity, dose response, cytotoxicity control for PAX8 inhibitor project, plate reader, dry powder samples (AID 743021); type: functional, cell-based
[5] = biological target: T3, Endoribonuclease toxin MazF (Escherichia coli K-12, UniProt P0AE70); assay: MazF toxin RNase activators, dose response, biochemical, fluorescence, single-stranded RNA substrate, uHTS hits (AID 588481); type: functional
T3 sequence (P0AE70 whole entry): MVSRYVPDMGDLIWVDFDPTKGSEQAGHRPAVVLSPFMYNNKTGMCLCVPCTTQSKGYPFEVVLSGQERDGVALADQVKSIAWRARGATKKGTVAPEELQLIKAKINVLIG

[6] = biological target: T3, Endoribonuclease toxin MazF; assay: fluorescent RNA oligo signal without MazF, dose response, counter-screen for MazEF activator project, biochemical, fluorescence, single-stranded RNase substrate (AID 588502); type: functional
Estrogen receptor = biological target: T4, Estrogen receptor (Homo sapiens, UniProt P03372);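 also: potency for inhibiting coactivator peptide recruitment to the receptor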
T4 sequence (P03372 whole entry): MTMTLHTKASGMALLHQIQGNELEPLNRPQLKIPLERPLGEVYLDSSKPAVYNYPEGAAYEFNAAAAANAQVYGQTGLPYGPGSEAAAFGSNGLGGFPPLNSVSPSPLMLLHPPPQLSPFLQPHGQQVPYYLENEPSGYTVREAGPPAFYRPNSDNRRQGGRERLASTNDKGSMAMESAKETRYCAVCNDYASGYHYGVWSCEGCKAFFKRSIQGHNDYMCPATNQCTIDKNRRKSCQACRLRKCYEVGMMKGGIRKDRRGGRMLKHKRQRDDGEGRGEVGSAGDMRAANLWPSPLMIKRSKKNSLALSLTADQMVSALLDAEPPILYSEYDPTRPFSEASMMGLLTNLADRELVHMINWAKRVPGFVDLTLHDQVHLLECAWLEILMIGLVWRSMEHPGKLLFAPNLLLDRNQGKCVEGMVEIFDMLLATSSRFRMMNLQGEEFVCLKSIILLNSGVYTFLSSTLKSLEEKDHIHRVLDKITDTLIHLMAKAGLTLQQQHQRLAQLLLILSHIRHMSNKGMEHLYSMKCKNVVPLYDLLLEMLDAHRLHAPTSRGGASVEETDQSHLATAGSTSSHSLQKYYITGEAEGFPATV

[7] = inhibitors of HIV Env-driven cell fusion, dose response, cherry-pick (AID 652057); type: functional, cell-based
[8] = inhibitors of clade B AD8 Env fusion, dose response, cell-based, cherry-pick (AID 652062); type: functional;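 also: luciferase signal from cell-cell fusion driven by HIV-1 clade B AD8 Env; potency is for inhibitors of fusion seen as a drop in luminescence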
[9] = off-target signal loss in HeLa-CEM21 co-culture – HeLa F-luc CTL cells, cherry-picked, counter-screen for HIV-1 Env fusion inhibitor project, dose response (AID 652040); type: functional, cell-based;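 also: potency for signal decrease marking cytotoxic or nonspecific inhibition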
[10] = biological target: T5, Heat shock factor protein 1 (Mus musculus, UniProt P38532); assay: inhibition of MG132-induced HSE-luciferase signal, confirmation, cell-based, NIH3T3, luminescence, dose retest (AID 2382); type: functional;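 also: NIH3T3 fibroblasts with HSF1-driven luciferase reporter stressed by proteasome inhibitor MG132; luminescence from HSF1-driven luciferase expression after 8 hours of MG132 stress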
T5 sequence (P38532 whole entry): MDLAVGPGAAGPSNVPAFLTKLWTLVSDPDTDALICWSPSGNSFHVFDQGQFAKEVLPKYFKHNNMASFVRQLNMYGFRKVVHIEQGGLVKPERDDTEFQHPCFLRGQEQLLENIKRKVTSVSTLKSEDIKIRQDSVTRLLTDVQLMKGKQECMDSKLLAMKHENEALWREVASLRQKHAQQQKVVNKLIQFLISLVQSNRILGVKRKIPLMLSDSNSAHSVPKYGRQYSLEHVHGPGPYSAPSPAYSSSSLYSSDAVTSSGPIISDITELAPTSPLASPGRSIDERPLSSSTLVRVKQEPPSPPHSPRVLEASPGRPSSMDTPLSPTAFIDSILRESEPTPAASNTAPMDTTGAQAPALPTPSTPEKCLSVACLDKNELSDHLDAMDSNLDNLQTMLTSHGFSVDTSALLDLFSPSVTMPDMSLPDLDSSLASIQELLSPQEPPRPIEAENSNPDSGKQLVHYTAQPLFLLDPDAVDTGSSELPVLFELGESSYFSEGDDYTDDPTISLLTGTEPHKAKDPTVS

Paired box protein Pax-8 = Paired box protein Pax-8 (Homo sapiens, UniProt Q06710); assay: inhibitors of PAX8-driven TPO luciferase reporter, dose response, RMG-I cells, cherry-pick (AID 687027); type: functional, cell-based;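 also: luciferase reporter driven by Pax8 target thyroperoxidase promoter measured by SteadyGlo luminescence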
Chain of Paired box protein Pax-8 (Q06710 whole entry): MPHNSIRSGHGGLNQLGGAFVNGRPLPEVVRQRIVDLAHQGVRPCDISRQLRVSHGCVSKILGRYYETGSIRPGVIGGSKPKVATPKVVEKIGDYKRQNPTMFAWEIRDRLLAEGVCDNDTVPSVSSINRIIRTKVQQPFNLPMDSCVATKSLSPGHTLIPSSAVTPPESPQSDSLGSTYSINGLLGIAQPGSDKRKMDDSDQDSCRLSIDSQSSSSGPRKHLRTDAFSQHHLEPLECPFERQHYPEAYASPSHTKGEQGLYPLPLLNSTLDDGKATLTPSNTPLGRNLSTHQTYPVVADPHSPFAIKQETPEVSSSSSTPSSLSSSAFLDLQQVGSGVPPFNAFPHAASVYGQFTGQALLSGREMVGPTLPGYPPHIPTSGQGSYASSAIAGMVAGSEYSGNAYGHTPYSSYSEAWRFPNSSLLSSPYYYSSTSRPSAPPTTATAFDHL

[11] = Luminescence-based counterscreen assay for KLF5 inhibitors: dose response cell-based high throughput screening assay to identify cytotoxic compounds using the IEC-6 intestinal epithelial cell line. [Related pubchem assays: 1700 (Primary screen.), 1834 (Confirmation screen.), 1858 (Summary AID.), 1905 (Counterscreen.)]; type: functional
[12] = ZM109 Env clade C HIV-1 fusion inhibitors, dose response, HeLa effector, CEM target cells, luciferase, cherry-pick (AID 652058); type: functional, cell-based
[13] = growth suppression of PTEN-null colon cells, dose response, cell-based, HCT116 PTEN knockout (AID 1047); type: functional;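 also: HCT116 colon tumor cells with PTEN knocked out; cells exposed to compound for 60 hours before readout; potency for loss of cell viability measured by luminescence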
[14] = inhibitors of intracellular T. cruzi replication, confirmation, NIH3T3 host cells, beta-gal luminescence (AID 2044); type: functional, cell-based;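 also: intracellular parasites grown in NIH/3T3 mouse fibroblasts as host cells; luminescent beta-galactosidase reporter signal from transgenic T. cruzi replicating inside host cells; inhibitors lower the luminescence signal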
[15] = growth suppression of beta-catenin-knockout colon cells, dose response, cell-based, HCT116, human colon tumor (AID 1045); type: functional;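 also: HCT116 colon tumor cells with beta catenin knocked out; cells exposed to compound for 60 hours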
[16] = biological target: T6, Sentrin-specific protease 8 (Homo sapiens, UniProt Q96LD8); type: functional
T6 sequence (Q96LD8 whole entry): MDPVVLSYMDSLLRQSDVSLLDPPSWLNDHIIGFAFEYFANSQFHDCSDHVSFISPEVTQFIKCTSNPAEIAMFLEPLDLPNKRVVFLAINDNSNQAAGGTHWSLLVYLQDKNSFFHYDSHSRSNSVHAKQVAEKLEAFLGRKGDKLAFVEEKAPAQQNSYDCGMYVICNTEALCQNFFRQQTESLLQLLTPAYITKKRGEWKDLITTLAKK

[17] = cytotoxicity toward NIH3T3 fibroblasts, dose response, counter-screen, cell-based, ATP luminescence, mouse fibroblasts (AID 2010); type: functional;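 also: cells exposed to compound for about 90 hours before reading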
[18] = biological target: T6, Sentrin-specific protease 8; type: functional; remark: listed apart in the source
[19] = biological target: T7, Low molecular weight phosphotyrosine protein phosphatase (Homo sapiens, UniProt P24666); type: functional; settings: read-out: IC50_Mean;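 also: Dose-response confirmation assay measuring inhibition of LMPTP enzyme activity by fluorescence intensity read-out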
T7 sequence (P24666 whole entry): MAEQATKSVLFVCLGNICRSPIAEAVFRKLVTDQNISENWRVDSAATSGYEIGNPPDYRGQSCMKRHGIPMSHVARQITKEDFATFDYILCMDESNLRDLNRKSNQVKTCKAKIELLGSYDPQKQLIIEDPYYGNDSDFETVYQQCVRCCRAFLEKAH

## O=C(Nc1ccc(F)cc1)c1nn(-c2ccccc2)c(=O)cc1Cl
[1]
  IC50: 4.16 µM (active)
Protein RecA
  EC50: 8.71 µM (active)
[2]
  AC50: 11.9 µM (active)

## N#Cc1c(NC(=O)C2CC(c3c(F)cccc3Cl)=NO2)sc2c1CCC2 (stereo not drawn)
[3]
  IC50: 43.6 µM (inactive)

## O=C(C[C@H]1C[C@@H]2c3cc(NC(=O)C4CCOCC4)ccc3O[C@@H]2[C@@H](CO)O1)NCc1ccc(Oc2ccccc2)cc1
[4]
  AC50: 65.1 µM (active)

## COCCCn1c(=O)/c(=C\c2ccccc2OC(F)F)s/c1=C(/C#N)C(=O)NCCOC
[5]
  EC50: > 99 µM (inactive)
[6]
  EC50: > 99 µM (inactive)

## O=C(COC(=O)CCOc1ccccc1)NCc1ccco1
Estrogen receptor
  IC50: 16.6 µM (active)

## O=C(CN1CCCN(Cc2ccc(F)cc2Cl)C1=O)NC1CCCCCCC1
[7]
  AC50: 30.1 µM (active)
[8]
  AC50: 44.3 µM (active)
[9]
  AC50: > 70 µM (inactive)

## COc1cc(/C=N/O)ccc1OCc1ccc(C(=O)O)cc1
[4]
  AC50: 25.6 µM (active)
[7]
  AC50: 0.351 µM (active)
[10]
  EC50: 1.78 µM (active)
[8]
  AC50: 1.49 µM (active)
Paired box protein Pax-8
  AC50: 5.79 µM (active)
[11]
  IC50: > 39.8 µM (not active)
[9]
  AC50: 0.82 µM (active)
[12]
  AC50: 6.61 µM (active)

## O=C1CSC(=S)N1N=Cc1c(O)ccc2ccccc12
[5]
  EC50: > 99 µM (inactive)
[6]
  EC50: > 99 µM (inactive)

## Cc1onc(-c2ccccc2Cl)c1C(=O)NCc1cccnc1
Estrogen receptor
  IC50: > 50 µM (not active)

## Cc1ccc(/C=N/c2ccc(N(C)C)cc2)o1
[13]
  EC50: 42.3 µM (active)
[14]
  EC50: 1.12 µM (active)
[15]
  EC50: 58 µM (active)
[16]
  IC50: > 100 µM (inactive)
[17]
  EC50: > 60 µM (not active)
[18]
  IC50: 18.1 µM (active)

## Cc1ccc2nc(SCC(=O)N3CCCC3)nc(=O)n2c1
[3]
  IC50: 45.2 µM (inactive)

## Cc1cccc(C(=O)OCc2cc3ccccc3[nH]c2=O)c1
[5]
  EC50: > 99 µM (inactive)
[6]
  EC50: > 99 µM (inactive)

## CCn1cc(C=C2C(=O)c3ccccc3C2=O)c2ccccc21
[5]
  EC50: > 99 µM (inactive)
[6]
  EC50: 35.9 µM (inactive)

## CN(C)/C=C/C(=O)c1ccc(OCCN(C)c2ccccn2)cc1
[19]
  IC50: 29.9 µM (inactive)

## O=S1(=O)NC2c3ccccc3CC2O1 (stereo not drawn)
[16]
  IC50: 19.5 µM (active)
[18]
  IC50: 9.78 µM (active)

## CCOC(=O)CSc1nc2ccc(C)cc2cc1C#N
[5]
  EC50: 9.32 µM (active)
[6]
  EC50: > 99 µM (inactive)
